From patent publication US4220641A, “Organic compounds” (Sandoz Ltd., priority 1977, dated 1980)

Experiments:
[1] = system: mice spleen lymphoctyes stimulated with Concanavalin A; test: lymphocyte stimulation test according to Janossy in vitro; type: cell-based; details: concentrations of 0.01 to 10.0 μg/ml, Concanavalin A stimulated mice spleen lymphocytes
ear swelling = test: Oxazolon test in mice; type: in vivo; details: 5×70 mg/kg p.o.
Description: (b) Oxazolon test in mice:
A decrease in the ear swelling is observed upon administration of 5×70 mg/kg p.o. of the compound.

| Compound | inhibition of H^3-thymidine incorporation [1] | inhibition of the blastogenese [1] | inhibition of the proliferation rate [1] | ear swelling (ear swelling) |
| --- | --- | --- | --- | --- |
| CCCC[C@@H](C)[C@@H](O)C1C(=O)N[C@@H](C(C)C)C(=O)N(C)CC(=O)N(C)[C@@H](CC(C)C)C(=O)N[C@@H](C(C)C)C(=O)N(C)[C@@H](CC(C)C)C(=O)N[C@@H](C)C(=O)N[C@H](C)C(=O)N(C)[C@@H](CC(C)C)C(=O)N(C)[C@@H](CC(C)C)C(=O)N(C)[C@@H](C(C)C)C(=O)N1C (some centres unmarked) [dihydrocyclosporin D] | strong inhibition | strong inhibition | strong inhibition | decrease |
| C/C=C/C[C@@H](C)[C@@H](O)[C@H]1C(=O)N[C@@H](C(C)C)C(=O)N(C)CC(=O)N(C)[C@@H](CC(C)C)C(=O)N[C@@H](C(C)C)C(=O)N(C)[C@@H](CC(C)C)C(=O)N[C@@H](C)C(=O)N[C@H](C)C(=O)N(C)[C@@H](CC(C)C)C(=O)N(C)[C@@H](CC(C)C)C(=O)N(C)[C@@H](C(C)C)C(=O)N1C [cyclosporin D] | strong inhibition | strong inhibition | strong inhibition | decrease |
